Reference: PubChem BioAssay (NCI)
Several values for one entry are separate records, joined by “and”; a condition that tells them apart may be missing. Equal entries are not always repeated.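 A five-concentration, 48-hour dose response in 96-well plates underlies each endpoint, interpolated linearly between surrounding concentrations. GI50 marks 50% less growth. Definition used: TGI = concentration required for complete inhibition of growth.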

Legend:
Assay in all cases: inhibition of tumour cell growth, NCI panel, 48 h; in the data active means GI50 below about 0.43 µM; inactive means the rest
NCI-H522 lung = tested on: NCI-H522 lung
LOX IMVI melanoma = tested on: LOX IMVI melanoma
A549 NSCLC = tested on: A549 NSCLC
RXF 393 renal = tested on: RXF 393 renal
HCT-116 colon = tested on: HCT-116 colon
IGROV1 ovarian = tested on: IGROV1 ovarian
CCRF-CEM leukemia = tested on: CCRF-CEM leukemia
HT29 colon = tested on: HT29 colon
HL-60(TB) leukemia = tested on: HL-60(TB) leukemia
HCT-15 colon = tested on: HCT-15 colon
HOP-62 NSCLC = tested on: HOP-62 NSCLC
MCF7 breast = tested on: MCF7 breast
UACC-62 melanoma = tested on: UACC-62 melanoma
NCI-H226 lung = tested on: NCI-H226 lung
HCC-2998 colon = tested on: HCC-2998 colon
SF-295 CNS = tested on: SF-295 CNS
NCI-H460 lung = tested on: NCI-H460 lung
NCI-H23 lung = tested on: NCI-H23 lung
SW-620 colon = tested on: SW-620 colon
MOLT-4 leukemia = tested on: MOLT-4 leukemia
A498 renal = tested on: A498 renal
SNB-75 CNS = tested on: SNB-75 CNS
SF-268 CNS = tested on: SF-268 CNS
M14 melanoma = tested on: M14 melanoma
KM12 colon = tested on: KM12 colon
PC-3 prostate = tested on: PC-3 prostate
SK-MEL-2 melanoma = tested on: SK-MEL-2 melanoma
OVCAR-3 ovarian = tested on: OVCAR-3 ovarian
K-562 leukemia = tested on: K-562 leukemia
OVCAR-4 ovarian = tested on: OVCAR-4 ovarian
TK-10 renal = tested on: TK-10 renal
OVCAR-5 ovarian = tested on: OVCAR-5 ovarian
UO-31 renal = tested on: UO-31 renal
SNB-19 CNS = tested on: SNB-19 CNS
OVCAR-8 ovarian = tested on: OVCAR-8 ovarian
SR leukemia = tested on: SR leukemia
SK-MEL-5 melanoma = tested on: SK-MEL-5 melanoma
UACC-257 melanoma = tested on: UACC-257 melanoma
MDA-MB-435 = tested on: MDA-MB-435
SK-OV-3 ovarian = tested on: SK-OV-3 ovarian
RPMI-8226 leukemia = tested on: RPMI-8226 leukemia
COLO 205 colon = tested on: COLO 205 colon
SN12C renal = tested on: SN12C renal
CAKI-1 renal = tested on: CAKI-1 renal
U251 CNS = tested on: U251 CNS
HS 578T breast = tested on: HS 578T breast
786-0 renal = tested on: 786-0 renal
BT-549 breast = tested on: BT-549 breast
MDA-MB-468 breast = tested on: MDA-MB-468 breast
SF-539 CNS = tested on: SF-539 CNS

O=C1NC(=NC23CC4CC(CC(C4)C2)C3)N/C1=C\c1ccc2ncsc2c1
4.21 µM: TGI (RXF 393 renal)
8.13 µM: TGI (HS 578T breast)
active: GI50 (NCI-H522 lung) 0.168 µM | GI50 (HCT-116 colon) 0.323 µM | GI50 (SR leukemia) 0.17 µM
3.67 µM: TGI (MDA-MB-468 breast)
inactive: GI50 (LOX IMVI melanoma) 0.928 µM | GI50 (A549 NSCLC) 1.19 µM | GI50 (RXF 393 renal) 2.01 µM | GI50 (IGROV1 ovarian) 2.58 µM | GI50 (CCRF-CEM leukemia) 1.12 µM | GI50 (HT29 colon) 3.09 µM | GI50 (HL-60(TB) leukemia) 1.63 µM | GI50 (HCT-15 colon) 0.663 µM | GI50 (HOP-62 NSCLC) 3.35 µM | GI50 (MCF7 breast) 1.37 µM | GI50 (UACC-62 melanoma) 3.11 µM | GI50 (NCI-H226 lung) 1.43 µM | GI50 (HCC-2998 colon) 3.32 µM | GI50 (SF-295 CNS) 3.4 µM | GI50 (NCI-H460 lung) 0.538 µM | GI50 (NCI-H23 lung) 1.58 µM | GI50 (SW-620 colon) 1.81 µM | GI50 (MOLT-4 leukemia) 1.65 µM | GI50 (A498 renal) 2.7 µM | GI50 (SNB-75 CNS) 1.62 µM | GI50 (SF-268 CNS) 2.23 µM | GI50 (M14 melanoma) 2.42 µM | GI50 (KM12 colon) 1.8 µM | GI50 (PC-3 prostate) 3.29 µM | GI50 (SK-MEL-2 melanoma) 0.933 µM | GI50 (OVCAR-3 ovarian) 1.74 µM | GI50 (K-562 leukemia) 0.762 µM | GI50 (OVCAR-4 ovarian) 3.2 µM | GI50 (TK-10 renal) 2.87 µM | GI50 (OVCAR-5 ovarian) 2.45 µM | GI50 (UO-31 renal) 2.96 µM | GI50 (SNB-19 CNS) 3.58 µM | GI50 (OVCAR-8 ovarian) 1.68 µM | GI50 (SK-MEL-5 melanoma) 0.899 µM | GI50 (UACC-257 melanoma) 4.11 µM | GI50 (MDA-MB-435) 3.11 µM | GI50 (SK-OV-3 ovarian) 5.47 µM | GI50 (RPMI-8226 leukemia) 1.2 µM | GI50 (COLO 205 colon) 1.8 µM | GI50 (SN12C renal) 0.842 µM | GI50 (CAKI-1 renal) 1.33 µM | GI50 (U251 CNS) 1.79 µM | GI50 (HS 578T breast) 2.73 µM | GI50 (786-0 renal) 3.05 µM | GI50 (BT-549 breast) 1.63 µM | GI50 (MDA-MB-468 breast) 1.24 µM | GI50 (SF-539 CNS) 0.432 µM
6.77 µM: TGI (COLO 205 colon)
7 µM: TGI (BT-549 breast)
> 100 µM: TGI (LOX IMVI melanoma) | TGI (A549 NSCLC) | TGI (HCT-116 colon) | TGI (IGROV1 ovarian) | TGI (HT29 colon) | TGI (HCT-15 colon) | TGI (HOP-62 NSCLC) | TGI (MCF7 breast) | TGI (UACC-62 melanoma) | TGI (NCI-H226 lung) | TGI (HCC-2998 colon) | TGI (SF-295 CNS) | TGI (NCI-H460 lung) | TGI (SW-620 colon) | TGI (MOLT-4 leukemia) | TGI (M14 melanoma) | TGI (KM12 colon) | TGI (PC-3 prostate) | TGI (K-562 leukemia) | TGI (OVCAR-4 ovarian) | TGI (TK-10 renal) | TGI (OVCAR-5 ovarian) | TGI (SNB-19 CNS) | TGI (OVCAR-8 ovarian) | TGI (UACC-257 melanoma) | TGI (MDA-MB-435) | TGI (SK-OV-3 ovarian) | TGI (SN12C renal) | TGI (CAKI-1 renal) | TGI (U251 CNS) | TGI (786-0 renal)
5.14 µM: TGI (RPMI-8226 leukemia)
6.73 µM: TGI (OVCAR-3 ovarian)
5.25 µM: TGI (HL-60(TB) leukemia)
4.79 µM: TGI (NCI-H522 lung)
5.96 µM: TGI (CCRF-CEM leukemia)
7.79 µM: TGI (A498 renal)
3.06 µM: TGI (SF-539 CNS)
7.36 µM: TGI (NCI-H23 lung)
8.04 µM: TGI (UO-31 renal)
6.58 µM: TGI (SF-268 CNS)
4.29 µM: TGI (SNB-75 CNS)
3.13 µM: TGI (SK-MEL-2 melanoma)
5.56 µM: TGI (SK-MEL-5 melanoma)
1.24 µM: TGI (SR leukemia)

Nc1c(C(=O)c2cccc(-c3ccncc3)c2)cnn1-c1ccc(F)cc1F
17.9 µM: TGI (MDA-MB-468 breast)
inactive: GI50 (MDA-MB-468 breast) 2.18 µM

C=C(C)C(=O)Nc1ccc(NC(C)C)cc1
inactive: GI50 (MDA-MB-468 breast) > 100 µM
> 100 µM: TGI (MDA-MB-468 breast)

C=C1C(=O)O[C@H]2[C@H]1CC/C(COC(=O)NCc1cn(C)c3ccccc13)=C\CC[C@@]1(C)O[C@@H]21
inactive: GI50 (MDA-MB-468 breast) 0.836 µM
2.95 µM: TGI (MDA-MB-468 breast)

C[C@H]1[C@H](C)CC[C@]2(CO)CC[C@]3(C)C(=CC[C@@H]4[C@@]5(C)CCCNC(C)(C)[C@@H]5CC[C@]43C)[C@H]12
inactive: GI50 (MDA-MB-468 breast) 1.7 µM
3.44 µM: TGI (MDA-MB-468 breast)

CCN(CC)CCCC(C)Nc1ccnc2cc(Oc3ccccc3)ccc12 (configuration not stated)
inactive: GI50 (MDA-MB-468 breast) 3.06 µM and 3.95 µM
13.3 µM and 15.1 µM: TGI (MDA-MB-468 breast)

C#Cc1c(F)ccc2cc(O)cc(-c3ncc4c(N5CC6CCC(C5)N6)nc(OC[C@@]56CCCN5C[C@H](F)C6)nc4c3F)c12
inactive: GI50 (MDA-MB-468 breast) 4.78 µM
11.9 µM: TGI (MDA-MB-468 breast)
